Assay results: patent EP4603105A1, “PHARMACEUTICAL COMPOSITION CONTAINING CYCLIC COMPOUND HAVING SELECTIVE KRAS INHIBITORY EFFECT AGAINST HRAS AND NRAS” (CHUGAI SEIYAKU KABUSHIKI KAISHA, priority 2022, dated 2024)
Where a SMILES comes first, the peptide text is derived from it. Bridges are numbered along the chain shown (N, C = ends). [ ]: non-standard residue; d: D form. The star is where a group is joined. hPhe(3,5-F2-4-CF3) = N[C@@H](CCc1cc(F)c(C(F)(F)F)c(F)c1)C(=O)O; hPhe(3-Cl-4-CF3) = N[C@@H](CCc1ccc(C(F)(F)F)c(Cl)c1)C(=O)O; NPrPhe(4-CF3) = CCCN[C@@H](Cc1ccc(C(F)(F)F)cc1)C(=O)O; NEtPhe(4-Me) = CCN[C@@H](Cc1ccc(C)cc1)C(=O)O; NMeGly(cPent) = CN[C@H](C(=O)O)C1CCCC1; NMeF = CN[C@@H](Cc1ccccc1)C(=O)O; αMeF = C[C@](N)(Cc1ccccc1)C(=O)O; NMeD = CN[C@@H](CC(=O)O)C(=O)O; NMeL = CN[C@@H](CC(C)C)C(=O)O; NMeV = CN[C@H](C(=O)O)C(C)C; Morpholide = C1CN(*)CCO1; Ac5c = NC1(C(=O)O)CCCC1; Aze = O=C(O)[C@@H]1CCN1; Sar = CNCC(=O)O

Tests used:
[1] = system: human lung cancer strain NCI-H441; assay type: cell-based
Procedure, shortened: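 Step one: dispense the test compound in serial DMSO dilutions. Step three: add the reagent and measure […].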

[2] = target: GDP-bound NRAS wild-type protein (Homo sapiens, UniProt P01111); experiment: Binding to NRAS by surface plasmon resonance (SPR), KD and KD ratio to KRAS
Chain of GDP-bound NRAS wild-type protein (P01111 whole entry): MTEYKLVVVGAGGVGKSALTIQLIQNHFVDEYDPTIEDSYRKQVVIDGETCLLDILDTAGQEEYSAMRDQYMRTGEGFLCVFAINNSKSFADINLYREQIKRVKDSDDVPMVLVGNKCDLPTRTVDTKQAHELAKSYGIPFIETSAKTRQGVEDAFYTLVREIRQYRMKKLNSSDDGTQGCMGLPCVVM
Procedure, shortened: (§1)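 Captured GDP-RAS (~100–300 RU) was exposed to increasing compound concentrations, 75 s per step, in running buffer with 10 µM GDP, 10 mM MgCl2 and 4% DMSO at pH 7.4.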

[3] = target: GDP-bound KRAS wild-type protein (Homo sapiens, UniProt P01116); experiment: Binding to KRAS by surface plasmon resonance (SPR), dissociation constant KD
Chain of GDP-bound KRAS wild-type protein (P01116 1-188 isoform P01116-2): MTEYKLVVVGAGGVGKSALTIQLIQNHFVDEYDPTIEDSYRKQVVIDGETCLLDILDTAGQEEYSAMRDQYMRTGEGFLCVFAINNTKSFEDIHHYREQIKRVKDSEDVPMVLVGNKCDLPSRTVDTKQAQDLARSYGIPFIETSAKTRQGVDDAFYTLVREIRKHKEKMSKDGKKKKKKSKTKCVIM
Procedure, shortened: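 GDP-bound biotin-Avi RAS captured at ~100–300 RU, 30°C, pH 7.4 HBS containing 10 µM GDP, 10 mM MgCl2, 1 mM DTT, 0.01% Tween 20 and 4% DMSO. KD by 1:1 fitting.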

HRAS wild-type protein = HRAS wild-type protein (Homo sapiens, UniProt P01112); experiment: Binding to HRAS by surface plasmon resonance (SPR), KD and KD ratio to KRAS
Chain of HRAS wild-type protein (P01112 whole entry): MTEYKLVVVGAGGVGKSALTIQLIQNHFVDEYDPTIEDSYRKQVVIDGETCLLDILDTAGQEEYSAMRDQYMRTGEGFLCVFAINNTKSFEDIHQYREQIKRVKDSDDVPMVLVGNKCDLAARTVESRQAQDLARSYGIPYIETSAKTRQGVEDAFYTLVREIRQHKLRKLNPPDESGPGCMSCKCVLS
Procedure, shortened: as §1

[4] = ratio of KD for GDP-bound NRAS wild-type protein to KD for KRAS
[5] = ratio of KD for HRAS wild-type protein to KD for KRAS
[6] = ratio of the KD value with respect to GDP-bound NRAS wild-type protein to the KD value with respect to KRAS
[7] = Single Cycle Kinetics, 1:1 binding model
[8] = ratio of the KD value with respect to HRAS wild-type protein to the KD value with respect to KRAS

Structure (SMILES)	IC50 [1] [nM]	NRAS /KRAS [2, 4]	Kd ([3]; 1:1 binding model) [nM]	HRAS /KRAS (HRAS wild-type protein; [5])	NRAS /KRAS [2, 6]	Kd [3, 7] [nM]	HRAS /KRAS (HRAS wild-type protein; [8])	Kd ([3]; Single Cycle Kinetics) [nM]	NRAS /KRAS ([2]; ratio of KD value for GDP-bound NRAS wild-type protein to KD value for KRAS (SPR))	HRAS /KRAS (HRAS wild-type protein; ratio of KD value for HRAS wild-type protein to KD value for KRAS (SPR))
CC[C@H](C)[C@@H]1NC(=O)[C@H](CC(C)C)N(C)C(=O)C[C@@H](C(=O)N2CCOCC2)N(C)C(=O)[C@H](C(C)C)N(C)C(=O)C2(CCCC2)NC(=O)[C@@H]2CCCN2C(=O)[C@H](CCc2ccc(C(F)(F)F)c(Cl)c2)NC(=O)CN(C)C(=O)[C@H](Cc2ccc(C)cc2)N(CC)C(=O)CN(C)C(=O)CN(C)C1=O [PP0044] ([NMeL]I[Sar][Sar][NEtPhe(4-Me)][Sar][hPhe(3-Cl-4-CF3)]P[Ac5c][NMeV][NMeD]-Morpholide; lactam N-11)	142	C (A compound having a KD ratio of 0.1 or more and less than 3 is denoted as C)	3.6	C (A compound having a KD ratio of 0.1 or more and less than 3 is denoted as C)	–	–	–	–	–	–
CCO[C@@H]1C[C@H]2C(=O)NC3(CCC3)C(=O)N(C)[C@@H](C3CCCC3)C(=O)N(C)[C@H](C(=O)N3CCOCC3)CC(=O)N(C)[C@@H](CC3CCCCC3)C(=O)N[C@@H]([C@@H](C)CC)C(=O)N(C)CC(=O)N(C)[C@H]3CCCCCN(C3=O)[C@@H](Cc3ccc(C(F)(F)F)cc3)C(=O)N(C)CC(=O)N[C@@H](CCc3cc(F)c(C(F)(F)F)c(F)c3)C(=O)N2C1 [PP0686]	65.7	–	–	–	B (a compound having 3 or more and less than 10 is denoted as B)	1	B (a compound having 3 or more and less than 10 is denoted as B)	–	–	–
CCO[C@@H]1C[C@H]2C(=O)NC3(CCC3)C(=O)N(C)[C@@H](C3CCCC3)C(=O)N(C)[C@H](C(=O)N3CCOCC3)CC(=O)N(C)[C@@H](CC(C)C)C(=O)N[C@@H]([C@H](C)CC)C(=O)N(C)CC(=O)N(C)[C@H]3CCCCCN(C3=O)[C@@H](Cc3ccc(C(F)(F)F)cc3)C(=O)N(C)CC(=O)N[C@@H](CCc3cc(F)c(C(F)(F)F)c(F)c3)C(=O)N2C1 [PP0815]	345	B (a compound having 3 or more and less than 10 is denoted as B)	–	B (a compound having 3 or more and less than 10 is denoted as B)	–	–	–	3.9	–	–
C#CC[C@H]1C(=O)N[C@@H]([C@@H](C)CC)C(=O)N(C)CC(=O)N(C)[C@H]2C/C=C\CCN(C2=O)[C@@H](Cc2ccc(C(F)(F)F)cc2)C(=O)N(C)CC(=O)N[C@@H](CCc2ccc(C(F)(F)F)c(OC)c2)C(=O)N2C[C@@H](C)C[C@H]2C(=O)NC2(CCC2)C(=O)N(C)[C@@H](C2CCCC2)C(=O)N(C)[C@H](C(=O)N(C)CCC)CC(=O)N1C [PP2063]	13.6	–	–	–	AA (a compound having 20 or more is denoted as AA)	0.09	A (a compound having 10 or more and less than 20 is denoted as A)	–	–	–
CCC[C@H]1C(=O)N[C@@H]([C@@H](C)CC)C(=O)N(C)CC(=O)N(C)[C@H]2C/C=C\CCN(C2=O)[C@@H](Cc2ccc(C(F)(F)F)cc2)C(=O)N(C)CC(=O)N[C@@H](CCc2ccc(C(F)(F)F)c(F)c2)C(=O)N2C[C@H](F)C[C@H]2C(=O)NC2(CC(C)(C)C2)C(=O)N(C)[C@@H](C2CCCCC2)C(=O)N(C)[C@H](C(=O)N(C)C)CC(=O)N1C [PP3122]	11.1	A (a compound having 10 or more and less than 20 is denoted as A)	0.4	B (a compound having 3 or more and less than 10 is denoted as B)	–	–	–	–	–	–
CC[C@H](C)[C@@H]1NC(=O)[C@H](CC(C)C)N(C)C(=O)C[C@@H](C(=O)N2C3CCC2COC3)N(C)C(=O)[C@H](C2CCCC2)N(C)C(=O)C2(CCCC2)NC(=O)[C@@H]2CCCN2C(=O)[C@H](CCc2cc(F)c(C(F)(F)F)c(F)c2)NC(=O)CN(C)C(=O)[C@H](Cc2ccc(C(F)(F)F)cc2)N2CCCCC[C@@H](C2=O)N(C)C(=O)CN(C)C1=O [PP0511]	414	–	–	–	A (a compound having 10 or more and less than 20 is denoted as A)	16	B (a compound having 3 or more and less than 10 is denoted as B)	–	–	–
CCC[C@H]1C(=O)N[C@@H]([C@@H](C)CC)C(=O)N(C)CC(=O)N(C)[C@H]2C/C=C\CCN(C2=O)[C@@H](Cc2ccc(C)cc2)C(=O)N(C)CC(=O)N[C@@H](CCc2cc(F)c(C(F)(F)F)c(F)c2)C(=O)N2C[C@H](OCC)C[C@H]2C(=O)NC2(CC(C)(C)C2)C(=O)N(C)[C@@H](C(CC)CC)C(=O)N(C)[C@H](C(=O)N(C)C)CC(=O)N1C [PP2064]	13.6	–	–	–	A (a compound having 10 or more and less than 20 is denoted as A)	0.26	A (a compound having 10 or more and less than 20 is denoted as A)	–	–	–
CCCN1C(=O)[C@@H]2CCN2C(=O)[C@H](Cc2ccccc2)N(C)C(=O)[C@H]([C@@H](C)CC)NC(=O)[C@H](CC(C)C)N(C)C(=O)C[C@@H](C(=O)N2CCOCC2)N(C)C(=O)[C@H](C2CCCC2)N(C)C(=O)C2(CCCC2)NC(=O)[C@@H]2CCCN2C(=O)[C@H](CCc2ccc(C(F)(F)F)c(Cl)c2)NC(=O)CN(C)C(=O)[C@@H]1Cc1ccc(C(F)(F)F)cc1 [PP0209] ([NMeL]I[NMeF][Aze][NPrPhe(4-CF3)][Sar][hPhe(3-Cl-4-CF3)]P[Ac5c][NMeGly(cPent)][NMeD]-Morpholide; lactam N-11)	569	C (A compound having a KD ratio of 0.1 or more and less than 3 is denoted as C)	110	C (A compound having a KD ratio of 0.1 or more and less than 3 is denoted as C)	–	–	–	–	–	–
CCO[C@@H]1C[C@H]2C(=O)NC3(CCC3)C(=O)N(C)[C@@H](C3CCCC3)C(=O)N(C)[C@H](C(=O)N(C)CC)CC(=O)N(C)[C@@H](CC3CCCC3)C(=O)N[C@@H]([C@@H](C)CC)C(=O)N(C)CC(=O)N(C)[C@H]3C/C=C\CCN(C3=O)[C@@H](Cc3ccc(C(F)(F)F)cc3)C(=O)N(C)CC(=O)N[C@@H](CCc3ccc(C(F)(F)F)c(OC)c3)C(=O)N2C1 [PP1573]	5.2	–	–	–	–	0.12	–	–	A (a compound having 10 or more and less than 20 is denoted as A)	A (a compound having 10 or more and less than 20 is denoted as A)
CCC(CC)[C@H]1C(=O)N(C)[C@H](C(=O)N(C)C)CC(=O)N(C)[C@@H](COC)C(=O)N[C@@H]([C@@H](C)CC)C(=O)N(C)CC(=O)N(C)[C@H]2C/C=C\CCN(C2=O)[C@@H](Cc2ccc(C)cc2)C(=O)N(C)CC(=O)N[C@@H](CCc2ccc(C(F)(F)F)c(Cl)c2)C(=O)N2CCCCC[C@H]2C(=O)NC2(CC(C)(C)C2)C(=O)N1C [PP2966]	29.3	A (a compound having 10 or more and less than 20 is denoted as A)	0.57	A (a compound having 10 or more and less than 20 is denoted as A)	–	–	–	–	–	–
CCCN1C(=O)CN(C)C(=O)[C@@H]2CCN2C(=O)[C@H]([C@@H](C)CC)NC(=O)[C@H](CC(C)C)N(C)C(=O)C[C@@H](C(=O)N2CCOCC2)N(C)C(=O)[C@H](C2CCCC2)N(C)C(=O)[C@](C)(Cc2ccccc2)NC(=O)[C@@H]2CCCN2C(=O)[C@H](CCc2cc(F)c(C(F)(F)F)c(F)c2)NC(=O)CN(C)C(=O)[C@@H]1Cc1ccc(C(F)(F)F)cc1 [PP0778] ([NMeL]I[Aze][Sar][NPrPhe(4-CF3)][Sar][hPhe(3,5-F2-4-CF3)]P[αMeF][NMeGly(cPent)][NMeD]-Morpholide; lactam N-11)	546	B (a compound having 3 or more and less than 10 is denoted as B)	–	B (a compound having 3 or more and less than 10 is denoted as B)	–	–	–	10	–	–
CCO[C@@H]1C[C@H]2C(=O)NC3(CC(C)(C)C3)C(=O)N(C)[C@@H](C3CCCC3)C(=O)N(C)[C@H](C(=O)N(C)CC)CC(=O)N(C)[C@@H]([C@@H](C)OC)C(=O)N[C@@H]([C@@H](C)CC)C(=O)N3CCC[C@H]3C(=O)N(C)[C@H]3C/C=C\CCN(C3=O)[C@@H](Cc3ccc(C)cc3)C(=O)N(C)CC(=O)N[C@@H](CCc3cc(F)c(C(F)(F)F)c(F)c3)C(=O)N2C1 [PP3190]	29.9	A (a compound having 10 or more and less than 20 is denoted as A)	0.87	B (a compound having 3 or more and less than 10 is denoted as B)	–	–	–	–	–	–
CCO[C@@H]1C[C@H]2C(=O)NC3(CCC3)C(=O)N(C)[C@@H](C(CC)CC)C(=O)N(C)[C@H](C(=O)N3CCOCC3)CC(=O)N(C)[C@@H](CC(C)C)C(=O)N[C@@H]([C@@H](C)CC)C(=O)N(C)CC(=O)N(C)[C@H]3CCCCCN(C3=O)[C@@H](Cc3ccc(C(F)(F)F)cc3)C(=O)N(C)CC(=O)N[C@@H](CCc3cc(F)c(C(F)(F)F)c(F)c3)C(=O)N2C1 [PP0820]	60.1	A (a compound having 10 or more and less than 20 is denoted as A)	–	B (a compound having 3 or more and less than 10 is denoted as B)	–	–	–	1.2	–	–
CCO[C@@H]1C[C@H]2C(=O)NC3(CCC3)C(=O)N(C)[C@@H](C(CC)CC)C(=O)N(C)[C@H](C(=O)N(C)C)CC(=O)N(C)[C@H]3CCCC/C=C/c4ccc(cc4)C[C@@H](C(=O)N(C)CC(=O)N[C@@H](CCc4ccc(Cl)c(Cl)c4)C(=O)N2C1)N1CC/C=C\C[C@@H](C1=O)N(C)C(=O)CN(C1CC1)C(=O)[C@H]([C@@H](C)CC)NC3=O [PP2605]	8.7	AA (a compound having 20 or more is denoted as AA)	0.34	A (a compound having 10 or more and less than 20 is denoted as A)	–	–	–	–	–	–
